Assay results as given in ChEMBL document CHEMBL4715727, “Design, synthesis, and biological evaluation of a novel series of peripheral-selective noradrenaline reuptake inhibitors-Part 2” (Bioorg Med Chem, 2016).
pIC50: −log10 of the molar value.

Key:
[1] = target: Sodium-dependent serotonin transporter (Homo sapiens, UniProt P31645); assay: Inhibition of human SERT expressed in CHO-K1 cells assessed as inhibition of [3H]-5-hydroxytryptamine reuptake measured after 20 mins by Microscintillation counting analysis; type: cell-based
Sodium-dependent serotonin transporter, sequence (P31645 whole entry): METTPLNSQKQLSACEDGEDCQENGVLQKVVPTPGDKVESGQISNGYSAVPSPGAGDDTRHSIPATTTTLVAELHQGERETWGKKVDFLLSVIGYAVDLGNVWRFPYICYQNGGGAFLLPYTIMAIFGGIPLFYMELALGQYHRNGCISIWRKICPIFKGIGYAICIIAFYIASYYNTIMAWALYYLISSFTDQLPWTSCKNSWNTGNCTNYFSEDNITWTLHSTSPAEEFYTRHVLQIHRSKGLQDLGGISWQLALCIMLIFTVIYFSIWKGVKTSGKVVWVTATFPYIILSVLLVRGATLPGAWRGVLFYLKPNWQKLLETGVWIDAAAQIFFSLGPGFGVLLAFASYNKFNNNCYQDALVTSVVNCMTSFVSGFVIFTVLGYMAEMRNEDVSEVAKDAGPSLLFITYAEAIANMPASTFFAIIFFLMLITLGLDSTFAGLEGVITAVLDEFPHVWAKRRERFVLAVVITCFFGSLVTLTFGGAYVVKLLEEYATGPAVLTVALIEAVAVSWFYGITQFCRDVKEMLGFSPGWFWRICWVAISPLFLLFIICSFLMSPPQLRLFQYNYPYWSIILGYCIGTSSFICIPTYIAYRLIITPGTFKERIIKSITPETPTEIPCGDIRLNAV

[2] = target: Sodium-dependent dopamine transporter (Homo sapiens, UniProt Q01959); assay: Inhibition of human DAT expressed in CHO-K1 cells assessed as inhibition of [3H]-dopamine reuptake measured after 60 mins by Microscintillation counting analysis; type: cell-based
Sodium-dependent dopamine transporter, sequence (Q01959 whole entry): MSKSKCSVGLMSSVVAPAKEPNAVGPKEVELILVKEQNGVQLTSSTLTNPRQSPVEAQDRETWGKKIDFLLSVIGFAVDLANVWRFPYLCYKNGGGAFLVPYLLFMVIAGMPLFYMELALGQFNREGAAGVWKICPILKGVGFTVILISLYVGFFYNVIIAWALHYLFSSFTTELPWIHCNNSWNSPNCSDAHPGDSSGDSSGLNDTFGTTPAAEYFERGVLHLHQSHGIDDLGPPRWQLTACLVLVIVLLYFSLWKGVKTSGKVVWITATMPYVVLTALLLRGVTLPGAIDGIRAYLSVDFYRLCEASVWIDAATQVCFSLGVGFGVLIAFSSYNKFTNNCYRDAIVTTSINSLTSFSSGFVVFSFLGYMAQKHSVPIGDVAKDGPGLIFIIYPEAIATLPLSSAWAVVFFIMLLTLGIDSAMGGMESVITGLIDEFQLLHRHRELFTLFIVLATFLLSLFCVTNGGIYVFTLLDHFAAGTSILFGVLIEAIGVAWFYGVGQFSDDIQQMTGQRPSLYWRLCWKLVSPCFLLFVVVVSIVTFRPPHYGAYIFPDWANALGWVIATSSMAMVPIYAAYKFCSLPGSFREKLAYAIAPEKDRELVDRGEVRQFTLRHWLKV

CYP2D6 = CYP2D6 (Homo sapiens, UniProt P10635); assay: Inhibition of CYP2D6 (unknown origin) expressed in insect cells assessed as reduction in 1'-hydroxybufuralol formation using bufuralol as substrate at 10 uM incubated for 60 mins by LC/MS/MS analysis; type: ADME; settings: recombinant CYP2D6 expressed in insect cells, probe bufuralol
CYP2D6, sequence (P10635 whole entry): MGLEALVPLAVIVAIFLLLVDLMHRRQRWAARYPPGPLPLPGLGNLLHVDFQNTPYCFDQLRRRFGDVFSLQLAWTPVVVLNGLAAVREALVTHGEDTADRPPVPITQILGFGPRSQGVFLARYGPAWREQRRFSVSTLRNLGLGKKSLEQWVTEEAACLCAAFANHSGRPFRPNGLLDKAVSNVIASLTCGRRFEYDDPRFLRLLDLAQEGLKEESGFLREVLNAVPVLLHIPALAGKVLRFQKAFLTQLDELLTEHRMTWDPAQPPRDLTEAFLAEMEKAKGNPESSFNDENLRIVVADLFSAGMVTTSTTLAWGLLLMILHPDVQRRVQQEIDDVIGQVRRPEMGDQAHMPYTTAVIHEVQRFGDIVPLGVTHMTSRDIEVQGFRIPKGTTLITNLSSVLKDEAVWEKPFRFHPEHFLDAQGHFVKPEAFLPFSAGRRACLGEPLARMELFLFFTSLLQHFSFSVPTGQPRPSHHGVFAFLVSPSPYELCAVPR

[3] = target: Sodium-dependent noradrenaline transporter (Homo sapiens, UniProt P23975); assay: Inhibition of human NET expressed in CHO-K1 cells assessed as inhibition of [3H]-norepinephrine reuptake measured after 45 mins by Microscintillation counting analysis; type: cell-based
Sodium-dependent noradrenaline transporter, sequence (P23975 whole entry): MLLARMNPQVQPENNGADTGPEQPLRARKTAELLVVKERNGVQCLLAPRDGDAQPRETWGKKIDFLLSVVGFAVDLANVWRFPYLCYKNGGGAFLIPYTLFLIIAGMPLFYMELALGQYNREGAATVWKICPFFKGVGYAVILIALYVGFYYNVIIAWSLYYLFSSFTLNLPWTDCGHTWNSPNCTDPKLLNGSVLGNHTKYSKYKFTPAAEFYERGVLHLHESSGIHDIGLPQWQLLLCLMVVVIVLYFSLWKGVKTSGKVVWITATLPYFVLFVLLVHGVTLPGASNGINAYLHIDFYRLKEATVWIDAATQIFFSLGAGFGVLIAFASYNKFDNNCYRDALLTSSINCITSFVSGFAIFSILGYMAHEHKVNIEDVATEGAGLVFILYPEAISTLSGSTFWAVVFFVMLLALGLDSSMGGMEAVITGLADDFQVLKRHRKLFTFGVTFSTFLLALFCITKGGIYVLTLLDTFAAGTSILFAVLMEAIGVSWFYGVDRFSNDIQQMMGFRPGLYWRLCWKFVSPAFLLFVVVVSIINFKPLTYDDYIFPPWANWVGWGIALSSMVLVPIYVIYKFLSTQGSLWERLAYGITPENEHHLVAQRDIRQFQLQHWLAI

MDR1 (ABCB1, P-gp) = MDR1 (ABCB1, P-gp) (Homo sapiens, UniProt P08183); assay: Substrate activity at human MDR1 expressed in LLC-PK1 cells assessed as efflux ratio of permeability from basolateral to apical side over apical to basolateral side at 10 uM measured after 2 hrs by LC/MS/MS analysis; type: ADME, cell-based
MDR1 (ABCB1, P-gp), sequence (P08183 whole entry): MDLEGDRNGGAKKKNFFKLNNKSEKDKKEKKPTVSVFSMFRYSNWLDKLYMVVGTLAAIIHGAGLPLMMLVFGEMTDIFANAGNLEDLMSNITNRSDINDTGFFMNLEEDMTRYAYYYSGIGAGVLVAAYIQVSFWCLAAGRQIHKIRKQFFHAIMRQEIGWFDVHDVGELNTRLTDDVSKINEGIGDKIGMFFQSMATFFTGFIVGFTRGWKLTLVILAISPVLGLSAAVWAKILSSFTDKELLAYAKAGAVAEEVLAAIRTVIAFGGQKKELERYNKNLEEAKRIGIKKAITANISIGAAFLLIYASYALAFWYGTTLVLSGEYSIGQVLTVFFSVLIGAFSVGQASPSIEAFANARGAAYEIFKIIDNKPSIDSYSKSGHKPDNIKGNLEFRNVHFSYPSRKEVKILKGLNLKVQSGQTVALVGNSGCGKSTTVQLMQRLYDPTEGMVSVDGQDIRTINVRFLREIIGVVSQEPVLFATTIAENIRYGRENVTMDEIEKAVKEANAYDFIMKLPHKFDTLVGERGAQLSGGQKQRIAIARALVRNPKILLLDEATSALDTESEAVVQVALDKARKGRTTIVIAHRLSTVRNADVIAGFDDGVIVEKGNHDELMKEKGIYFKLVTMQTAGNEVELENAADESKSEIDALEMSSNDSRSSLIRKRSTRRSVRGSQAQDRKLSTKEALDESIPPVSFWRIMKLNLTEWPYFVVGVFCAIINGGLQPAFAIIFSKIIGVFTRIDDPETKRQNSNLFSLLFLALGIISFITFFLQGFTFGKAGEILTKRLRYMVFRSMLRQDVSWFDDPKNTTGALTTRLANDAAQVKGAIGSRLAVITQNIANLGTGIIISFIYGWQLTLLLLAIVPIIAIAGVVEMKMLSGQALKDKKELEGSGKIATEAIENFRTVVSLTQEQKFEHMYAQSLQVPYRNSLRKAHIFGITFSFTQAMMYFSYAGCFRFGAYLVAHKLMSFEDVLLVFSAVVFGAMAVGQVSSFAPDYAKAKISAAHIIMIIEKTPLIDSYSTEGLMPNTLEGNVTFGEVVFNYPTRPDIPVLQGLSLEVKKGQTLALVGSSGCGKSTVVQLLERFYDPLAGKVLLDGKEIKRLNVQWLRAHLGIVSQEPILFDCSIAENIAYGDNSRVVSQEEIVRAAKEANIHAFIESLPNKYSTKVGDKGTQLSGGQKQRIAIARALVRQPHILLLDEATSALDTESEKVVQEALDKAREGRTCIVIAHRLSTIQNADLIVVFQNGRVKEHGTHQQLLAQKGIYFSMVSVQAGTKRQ

[4] = Permeability coefficient of the compound at 10 uM at pH 7.4 measured after 3 hrs by PAMPA based LC/MS/MS analysis; type: ADME; design: unit not given here; settings: pH 7.4, 3 h
[5] = Drug metabolism assessed as CYP2B6/CYP2C9/CYP2E1/CYP2C8/CYP1A2 (unknown origin) expressed in microsomes-mediated metabolism by measuring metabolic rate at 1 uM incubated for 10 mins by UPLC analysis; type: ADME, Microsome; settings: human
Rattus norvegicus = assay: Anti-SUI activity in po dosed rat assessed as induction of urethral resistance by measuring increase in leak point pressure measured after 15 to 240 mins; type: functional, organism-based; settings: dose 1-10 mg/kg, time 15-240 min, tested as the 2H-labelled form
Cytochrome P450 2D6 [6] = target: T1, Cytochrome P450 2D6 (Homo sapiens, UniProt P10635); assay: Drug metabolism assessed as CYP2D6 (unknown origin) expressed in microsomes-mediated metabolism by measuring metabolic rate at 1 uM incubated for 10 mins by UPLC analysis; type: ADME, Microsome
T1 sequence (P10635 whole entry): as the sequence (P10635 whole entry) above

Cytochrome P450 3A4 = Cytochrome P450 3A4 (Homo sapiens, UniProt P08684); assay: Drug metabolism assessed as CYP3A4 (unknown origin) expressed in microsomes-mediated metabolism by measuring metabolic rate at 1 uM incubated for 10 mins by UPLC analysis; type: ADME, Microsome
Cytochrome P450 3A4, sequence (P08684 whole entry): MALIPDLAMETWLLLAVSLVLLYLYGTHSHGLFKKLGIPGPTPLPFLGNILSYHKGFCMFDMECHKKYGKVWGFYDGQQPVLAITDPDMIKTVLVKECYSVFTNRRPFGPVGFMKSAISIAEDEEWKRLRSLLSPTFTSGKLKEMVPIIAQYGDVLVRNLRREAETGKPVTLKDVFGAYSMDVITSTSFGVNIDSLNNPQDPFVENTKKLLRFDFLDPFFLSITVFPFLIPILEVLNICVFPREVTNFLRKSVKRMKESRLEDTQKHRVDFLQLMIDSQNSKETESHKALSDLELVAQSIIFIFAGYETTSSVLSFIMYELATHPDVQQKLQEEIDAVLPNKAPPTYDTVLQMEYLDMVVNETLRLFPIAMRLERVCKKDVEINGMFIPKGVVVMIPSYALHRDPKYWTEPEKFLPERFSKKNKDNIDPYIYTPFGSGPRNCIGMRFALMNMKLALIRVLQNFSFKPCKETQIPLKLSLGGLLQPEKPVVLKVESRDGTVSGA

Cytochrome P450 2D6 [7] = target: T1, Cytochrome P450 2D6; assay: Drug metabolism assessed as CYP2D6 (unknown origin)-expressed in microsomes mediated N-(((6S,7R)-7-(4-chloro-3-fluorophenyl)-1,4-oxazepan-6-yl)methyl)-2-hydroxyacetamide formation at 1 uM incubated for 10 mins by UPLC anlaysis; type: ADME, Microsome
Cytochrome P450 2D6 [8] = target: T1, Cytochrome P450 2D6; assay: Drug metabolism in human hepatocytes assessed as CYP2D6-mediated N-(((6S,7R)-7-(4-chloro-3-fluorophenyl)-1,4-oxazepan-6-yl)methyl)-2-hydroxyacetamide formation at 10 uM incubated for 6 hrs by LC/MS/MS anlaysis; type: ADME, cell-based, Hepatocyte
Cytochrome P450 2C19 = Cytochrome P450 2C19 (Homo sapiens, UniProt P33261); assay: Drug metabolism assessed as CYP2C19 (unknown origin) expressed in microsomes-mediated metabolism by measuring metabolic rate at 1 uM incubated for 10 mins by UPLC analysis; type: ADME, Microsome
Cytochrome P450 2C19, sequence (P33261 whole entry): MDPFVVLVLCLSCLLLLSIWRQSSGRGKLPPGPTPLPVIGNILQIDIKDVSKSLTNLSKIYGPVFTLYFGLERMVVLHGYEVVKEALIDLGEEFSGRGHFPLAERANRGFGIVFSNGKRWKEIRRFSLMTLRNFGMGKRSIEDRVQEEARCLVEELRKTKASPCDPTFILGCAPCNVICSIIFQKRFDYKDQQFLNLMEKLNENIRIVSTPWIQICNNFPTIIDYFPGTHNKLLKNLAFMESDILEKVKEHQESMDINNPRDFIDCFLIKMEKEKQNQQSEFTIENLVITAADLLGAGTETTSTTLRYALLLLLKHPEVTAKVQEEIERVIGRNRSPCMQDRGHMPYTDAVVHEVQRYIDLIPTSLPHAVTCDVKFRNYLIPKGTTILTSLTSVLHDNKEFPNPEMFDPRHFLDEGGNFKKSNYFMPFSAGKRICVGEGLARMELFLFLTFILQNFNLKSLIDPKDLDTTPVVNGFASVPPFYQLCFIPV

[9] = Ex vivo receptor occupancy at NET in Sprague-Dawley rat left brain cortex assessed as [3H]nisoxetine labelling at 3 mg/kg, iv measured after 20 mins by scintillation counting analysis; type: functional
hERG (KCNH2) = hERG (KCNH2) (Homo sapiens, UniProt Q12809); assay: Inhibition of human ERG at 10 uM
[10] = Oral bioavailability in Crl:CD(SD)(IGS) rat at 1 mg/kg measured after 8 hrs by LC/MS/MS analysis; type: ADME, organism-based; settings: in vivo

Compound | pIC50 [1] | pIC50 [2] | inhibition at 1 h, 10 µM (CYP2D6) [%] | pIC50 [3] | efflux ratio at 2 h, 10 µM (MDR1 (ABCB1, P-gp)) | Pe [4] | Drug metabolism [5] [%/min/pmol] | Activity (Rattus norvegicus) | Drug metabolism (Cytochrome P450 2D6 [6]) [%/min/pmol] | Drug metabolism (Cytochrome P450 3A4) [%/min/pmol] | Drug metabolism (Cytochrome P450 2D6 [7]) | Drug metabolism (Cytochrome P450 2D6 [8]) | Drug metabolism (Cytochrome P450 2C19) [%/min/pmol] | Occ [9] [%] | inhibition at 10 µM (hERG (KCNH2)) [%] | bioavailability [10] [%]
COC(C)C(=O)NC[C@@H]1CNCCO[C@H]1c1ccc(Cl)c(F)c1.Cl (some centres not stated) | 6.10 | < 6.00 | 33 | 8.06 | 1.9 |  |  |  |  |  |  |  |  |  |  | 
CCCC(=O)NC[C@@H]1CNCCO[C@H]1c1ccc(Cl)c(Cl)c1.Cl | 7.21 | < 6.00 | 62 | 8.59 | 3 | 260 |  |  |  |  |  |  |  |  |  | 
Cl.O=C(NC[C@@H]1CNCCO[C@H]1c1ccc(Cl)c(F)c1)C1COCCO1 (some centres not stated) | 6.27 | < 6.00 | 66 | 8.59 | 3.6 |  |  |  |  |  |  |  |  |  |  | 
COCC(=O)NC[C@@H]1CNCCO[C@H]1c1ccc(Cl)c(F)c1.Cl | 6.36 | < 6.00 | 48 | 8.49 | 2.1 | 221 | 0 | Dose-dependent effect | 0.081 | 0 | Metabolite_Detected | Metabolite_Detected | 0.016 |  |  | 
Cl.O=C(NC[C@@H]1CNCCO[C@H]1c1ccc(Cl)c(F)c1)C1CCCO1 (some centres not stated) | 6.70 | < 6.00 | 80 | 8.28 | 3.5 |  |  |  |  |  |  |  |  |  |  | 
COC(C)(C)C(=O)NC[C@@H]1CNCCO[C@H]1c1ccc(Cl)c(F)c1.Cl | 6.28 | < 6.00 | 42 | 7.68 | 2.4 |  |  |  |  |  |  |  |  |  |  | 
Cl.[2H]C([2H])([2H])OCC(=O)NC[C@@H]1CNCCO[C@H]1c1ccc(Cl)c(F)c1 | 6.17 | < 6.00 | 49 | 8.48 | 2.1 |  | 0.008 |  | 0.035 | 0.015 |  | Metabolite_Detected | 0.012 | 3.8 | 17 | 68
CC(=O)NC[C@@H]1CNCCO[C@H]1c1ccc(Cl)c(Cl)c1.Cl |  | < 6.00 | 26 |  | 5 | 146 |  |  |  |  |  |  |  |  |  | 
CCC(=O)NC[C@@H]1CNCCO[C@H]1c1ccc(Cl)c(Cl)c1.Cl | 6.92 | < 6.00 | 41 | 8.82 | 4.8 | 207 |  |  |  |  |  |  |  |  |  | 
COCC(=O)NC[C@@H]1CNCCO[C@H]1c1ccc(Cl)c(Cl)c1.Cl | 7.15 | 5.80 | 70 | 8.92 | 2.1 | 279 |  |  |  |  |  |  |  |  |  | 
CCOCC(=O)NC[C@@H]1CNCCO[C@H]1c1ccc(Cl)c(F)c1.Cl | 6.66 | < 6.00 | 79 | 8.48 | 1.4 |  | 0 |  | 0.365 | 0.026 |  |  | 0.005 |  |  | 
COCCC(=O)NC[C@@H]1CNCCO[C@H]1c1ccc(Cl)c(F)c1.Cl | 6.05 | < 6.00 | 44 | 8.41 | 12 | 151 |  |  |  |  |  |  |  |  |  | 
CC(C)OCC(=O)NC[C@@H]1CNCCO[C@H]1c1ccc(Cl)c(F)c1.Cl | 6.41 | < 6.00 | 66 | 8.32 | 1.7 |  | 0 |  | 0.37 | 0.064 |  |  | 0.017 |  |  | 
